In PubChem BioAssay AID2060607 (Molecular Pharmacology Branch, DTP, NCI, 2025):
Values joined by “and” are separate entries in the source; they are usually repeats but may differ in a detail not shown here. Equal values may be shown once.

Tested on: 876862-298-R-J1-PDC complex spheroids, viability % test/control
Test: Anticancer human tumor 876862-298-R-J1-PDC patient-derived endometrial carcinoma cell line growth inhibition [CLK]
Conditions: for viability, T/C: stronger effect = lower value
Excerpt: A high-throughput screen of multi-cell type tumor spheroids was designed to identify active combinations of […] and targeted small molecules. Complex spheroids include a stromal component modeled by human endothelial cells (HUVEC) and fibroblasts modeled by human mesenchymal stem cells (MSCs). The concentration ranges selected for each drug and investigational agent were based upon clinically achievable concentrations if the clinical Cmax of the agent was known.
Compounds. The drugs and investigational agents: cirtuvivint (SM08502; NSC835563), CC-671 (NSC850746), vemurafenib (NSC761431), tapotoclax (NSC804041), sotorasib (NSC818433), adagrasib (NSC831453), MRTX-1133 (NSC836407), BAY2416964 (NSC825713), copanlisib (NSC816437), inavolisib (NSC800729), abemaciclib (NSC768073), osimertinib (NSC779217), entinostat (NSC756642), eltanexor (KPT-8602, NSC794443), venetoclax (NSC766270), ceralasertib (NSC777638), bortezomib (NSC756655), olaparib (NSC753686), talazoparib (NSC767125), alisertib (NSC759677), peposertib (NSC802822), gemcitabine (NSC613327), 5-fluorouracil (NSC19893), SN-38 (NSC673596), oxaliplatin (NSC266046), paclitaxel (NSC125973), and doxorubicin (NSC123127), were obtained from the National Cancer Institute (NCI) Developmental Therapeutics Program Chemical Repository. The FDA-approved anticancer drug set is available from the Developmental Therapeutics Program at https://dtp.cancer.gov/organization/dscb/obtaining/available plates.htm. […] The stock solutions were prepared in dimethyl sulfoxide (DMSO, Sigma-Aldrich, St. Louis, MO, cat. D2650), except for the platinum complexes which were prepared in saline (Quality Biological, Gaithersburg, MD, cat. 114-055-101), at 800-fold the tested concentration and stored at -70 degrees C prior to their use. All drugs and investigational agents were tested over a range starting from a high concentration at or near the clinical Cmax and decreasing in half-log increments. If the clinical Cmax for an agent had not been determined, the highest concentration tested was 10 microM.
Cell Culture. All cells were maintained in an incubator at 37 degrees C and 5% CO2 with 95% humidity. The PDC lines were cultured according to standard operating procedures established by the NCI PDMR. Briefly, all PDCs were thawed and cultured in Matrigel-coated flasks prepared with a working solution of 1X Ham's F-12 nutrient mix, without supplementation (Invitrogen, Waltham, MA, cat. 11765054), 100 U/mL penicillin-streptomycin (Invitrogen, cat. 15140122), and 2.5% Matrigel (Corning Inc., Corning, NY, cat. 354248) for the first three passages. The 947758-054-R-J2-PDC line was cultured in 6B/Colon 1A media, which includes advanced DMEM/F-12 (Thermo Fisher Scientific, cat. 12634028), 10 mM HEPES (Thermo Fisher Scientific, cat. 15630080), 1X GlutaMAX supplement (Thermo Fisher Scientific, cat. 35050061), 0.1 mg/mL primocin (InvivoGen, cat. ant-pm-2), 10% defined fetal bovine serum, heat inactivated (HyClone Laboratories Inc., cat. SH30070.03HI), 1.25 mM N-Acetyl-L-cysteine (Sigma-Aldrich, cat. A9165), 10 mM nicotinamide (Sigma-Aldrich, cat. N0636), 1X B-27 supplement (Thermo Fisher Scientific, cat. 17504044), 1X N-2 supplement (Thermo Fisher Scientific, cat. 17502048), and 10 microM Y-27632 dihydrochloride (Tocris Bioscience, cat. 1254). The 876862-298-R-J1-PDC was cultured in 6E media, which includes all 6B/Colon 1A media components plus 50% L-WRN conditioned media (ATCC, cat. CRL-3276), 50 ng/mL recombinant human EGF recombinant protein (hEGF; Thermo Fisher Scientific, cat. PHG0311), 10 ng/mL recombinant human fibroblast growth factor 10 (hGFG-10; PeproTech, cat. 100-26), 1 ng/mL recombinant human fibroblast growth factor 2 (hFGF-2; PeproTech, cat. 100-18B), and 1 µM prostaglandin E2 (PGE2; Tocris, cat. 2296). The 227483-062-R1-J1-PDC line was cultured in Panc media, containing all 6E components except hFGF-2, with the addition of 500 nM SB-431542 (Selleckchem, cat. S1067) and 10 nM gastrin (Tocris, cat. 3006). […]

[1] = curve of first compound, second compound 0.0316 µM
[2] = curve of first compound, second compound 0.1 µM
[3] = curve of first compound, second compound 0.316 µM
[4] = curve of first compound, second compound 1 µM
[5] = curve of first compound, second compound 3.16 µM
[6] = curve of first compound, second compound 10 µM
[7] = second compound 0.0316 µM, first compound 0.0316 µM
[8] = second compound 0.0316 µM, first compound 0.1 µM
[9] = second compound 0.0316 µM, first compound 0.316 µM
[10] = second compound 0.0316 µM, first compound 1 µM
[11] = second compound 0.0316 µM, first compound 3.16 µM
[12] = second compound 0.0316 µM, first compound 10 µM
[13] = second compound 0.1 µM, first compound 0.0316 µM
[14] = second compound 0.1 µM, first compound 0.1 µM
[15] = second compound 0.1 µM, first compound 0.316 µM
[16] = second compound 0.1 µM, first compound 1 µM
[17] = second compound 0.1 µM, first compound 3.16 µM
[18] = second compound 0.1 µM, first compound 10 µM
[19] = second compound 0.316 µM, first compound 0.0316 µM
[20] = second compound 0.316 µM, first compound 0.1 µM
[21] = second compound 0.316 µM, first compound 0.316 µM
[22] = second compound 0.316 µM, first compound 1 µM
[23] = second compound 0.316 µM, first compound 3.16 µM
[24] = second compound 0.316 µM, first compound 10 µM
[25] = second compound 1 µM, first compound 0.0316 µM
[26] = second compound 1 µM, first compound 0.1 µM
[27] = second compound 1 µM, first compound 0.316 µM
[28] = second compound 1 µM, first compound 1 µM
[29] = second compound 1 µM, first compound 3.16 µM
[30] = second compound 1 µM, first compound 10 µM
[31] = second compound 3.16 µM, first compound 0.0316 µM
[32] = second compound 3.16 µM, first compound 0.1 µM
[33] = second compound 3.16 µM, first compound 0.316 µM
[34] = second compound 3.16 µM, first compound 1 µM
[35] = second compound 3.16 µM, first compound 3.16 µM
[36] = second compound 3.16 µM, first compound 10 µM
[37] = second compound 10 µM, first compound 0.0316 µM
[38] = second compound 10 µM, first compound 0.1 µM
[39] = second compound 10 µM, first compound 0.316 µM
[40] = second compound 10 µM, first compound 1 µM
[41] = second compound 10 µM, first compound 3.16 µM
[42] = second compound 10 µM, first compound 10 µM
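Further: spheroids exposed to drugs for 7 days before readout.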
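Wherever viability, T/C is given: 100% = DMSO vehicle control wells.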

CC(=O)O[C@H]1C(=O)[C@@]2(C)[C@H]([C@H](OC(=O)c3ccccc3)[C@]3(O)C[C@H](OC(=O)[C@H](O)[C@@H](NC(=O)c4ccccc4)c4ccccc4)C(C)=C1C3(C)C)[C@]1(OC(C)=O)CO[C@@H]1C[C@@H]2O + CNC(=O)c1ccc(Nc2nc(OC3CCCC3)c3c(-c4ccc5nc(C)oc5c4)c[nH]c3n2)c(OC)c1
IC50 [1]: < 0.0316 µM
IC50 [2]: < 0.0316 µM
IC50 [3]: < 0.0316 µM
IC50 [4]: < 0.0316 µM
IC50 [5]: < 0.0316 µM
IC50 [6]: < 0.0316 µM
viability, T/C [7]: 32.5%
viability, T/C [8]: 37.6%
viability, T/C [9]: 37.8%
viability, T/C [10]: 36.5%
viability, T/C [11]: 37.3%
viability, T/C [12]: 43.6%
viability, T/C [13]: 51.2%
viability, T/C [14]: 45.7%
viability, T/C [15]: 45.6%
viability, T/C [16]: 42.8%
viability, T/C [17]: 49.8%
viability, T/C [18]: 50.9%
viability, T/C [19]: 41.5%
viability, T/C [20]: 45.6%
viability, T/C [21]: 43.8%
viability, T/C [22]: 41.4%
viability, T/C [23]: 47.8%
viability, T/C [24]: 45.9%
viability, T/C [25]: 32.2%
viability, T/C [26]: 31%
viability, T/C [27]: 33.2%
viability, T/C [28]: 35.4%
viability, T/C [29]: 36%
viability, T/C [30]: 40.8%
viability, T/C [31]: 23.1%
viability, T/C [32]: 22.9%
viability, T/C [33]: 24.7%
viability, T/C [34]: 26.6%
viability, T/C [35]: 30.4%
viability, T/C [36]: 33.6%
viability, T/C [37]: 21.6%
viability, T/C [38]: 21%
viability, T/C [39]: 23.4%
viability, T/C [40]: 26.1%
viability, T/C [41]: 25.3%
viability, T/C [42]: 30%

COC1C=CCC(C)C(C)S(=O)(=O)NC(=O)c2ccc3c(c2)N(CC2CCC21)CC1(CCCc2cc(Cl)ccc21)CO3 (stereo not drawn) + CNC(=O)c1ccc(Nc2nc(OC3CCCC3)c3c(-c4ccc5nc(C)oc5c4)c[nH]c3n2)c(OC)c1
IC50 [1]: 6.47 µM
IC50 [2]: < 0.0316 µM
IC50 [3]: < 0.0316 µM
IC50 [4]: < 0.0316 µM
IC50 [5]: < 0.0316 µM
IC50 [6]: < 0.0316 µM
viability, T/C [7]: 72%
viability, T/C [8]: 92.5%
viability, T/C [9]: 66.1%
viability, T/C [10]: 104%
viability, T/C [11]: 86.2%
viability, T/C [12]: 29.1%
viability, T/C [13]: 46.2%
viability, T/C [14]: 45.4%
viability, T/C [15]: 37.3%
viability, T/C [16]: 32.2%
viability, T/C [17]: 30.3%
viability, T/C [18]: 21.5%
viability, T/C [19]: 40.3%
viability, T/C [20]: 33.6%
viability, T/C [21]: 29.8%
viability, T/C [22]: 24.8%
viability, T/C [23]: 20.5%
viability, T/C [24]: 19.1%
viability, T/C [25]: 31.9%
viability, T/C [26]: 25.8%
viability, T/C [27]: 20.6%
viability, T/C [28]: 17.6%
viability, T/C [29]: 13.8%
viability, T/C [30]: 13.5%
viability, T/C [31]: 26.1%
viability, T/C [32]: 20.3%
viability, T/C [33]: 15.6%
viability, T/C [34]: 12%
viability, T/C [35]: 9.4%
viability, T/C [36]: 7.9%
viability, T/C [37]: 22.6%
viability, T/C [38]: 19%
viability, T/C [39]: 12.3%
viability, T/C [40]: 12.3%
viability, T/C [41]: 9.91%
viability, T/C [42]: 5.3%

CC1COCCN1c1cc(C2(S(C)(=N)=O)CC2)nc(-c2ccnc3[nH]ccc23)n1 (stereo not drawn)
viability, T/C (compound 0.0316 µM): 110% and 102%
viability, T/C (compound 0.1 µM): 99.5% and 104%
viability, T/C (compound 0.316 µM): 89.4% and 94.8%
viability, T/C (compound 1 µM): 77.1% and 79.5%
viability, T/C (compound 3.16 µM): 55% and 44%
viability, T/C (compound 10 µM): 27% and 18.8%
IC50 (curve of compound): 3.89 µM and 2.62 µM

C#Cc1c(F)ccc2cc(O)cc(-c3ncc4c(N5CC6CCC(C5)N6)nc(OCC56CCCN5CC(F)C6)nc4c3F)c12 (stereo not drawn)
viability, T/C (compound 0.0316 µM): 95.8% and 117%
viability, T/C (compound 0.1 µM): 100% and 96.1%
viability, T/C (compound 0.316 µM): 90.8% and 110%
viability, T/C (compound 1 µM): 92.2% and 105%
viability, T/C (compound 3.16 µM): 103% and 100%
viability, T/C (compound 10 µM): 81.8% and 86.7%
IC50 (curve of compound): > 10 µM
